Measurements taken from patent US20250032506A1, “GLUCOCORTICOID RECEPTOR BLOCKADE WITH MIFEPRISTONE TO SENSITIZE PANCREATIC CANCER TO IMMUNOTHERAPY” (BOARD OF REGENTS, THE UNIVERSITY OF TEXAS SYSTEM, priority 2021, published 2025).

What was measured:
GR = GR (Homo sapiens, UniProt P04150); conditions: ChIP-qPCR; co-treatment with mifepristone 100 nM and dexamethasone 100 nM, 30 min; SU86.86
Description: SU86.86 cells were grown to 40% confluence in 15-cm dishes in RPMI with 10% FBS, followed by 72-hour incubation in phenol red-free RPMI supplemented with 5% charcoal-stripped FBS. […] Cells were cross-linked with 1% formaldehyde, quenched with glycine, and harvested. After cell lysis with ChIP lysis buffer, cells were digested with Micrococcal Nuclease and sonicated to achieve the majority of DNA fragments between 200 bp and 500 bp. […] Chromatin was eluted from GR ChIP following the manufacturer's protocol.

HPAC cells = assay: qPCR and immunoblotting of PD-L1 and MHC-I in HPAC cells; type: cell-based, human; conditions: MIFE 20 μM (qPCR) or indicated doses (immunoblot), 72 h
Description: The male PDAC cell lines HY24409 and HY24160 and the female PDAC cell line HY19636 were established from KPC mice (p48-Cre; Kras^LSL-G12D/+; Trp53^loxP/+) that were backcrossed to a C57BL/6 background (purity: ˜ 98%). (See Bardeesy, N., et al. supra). The human PDAC cell lines SU86.86 ([…]), SW1990 ([…]), BXPC-3 ([…]), Miapaca-2 ([…]), Capan-1 ([…]), ASPC-1 ([…]), Hs766T ([…]), Colo357/FG ([…]), L3.6PL ([…]), Panc28 ([…]), Capan-2 ([…]), CF-Pac-1 ([…]), Panc3 (sex unknown), Panc1 ([…]), Panc48 (sex unknown), and HPAC ([…]) were from Mien-Chie Hung's lab stock. The HY24409, HY24160, HY19636, SU86.86, SW1990, and Hs766T cell lines were cultured in RPMI 1640 (Corning, 10-041-CV) supplemented with 10% fetal bovine serum (FBS) (Gibco, 10438-034) and 1% penicillin/streptomycin (Sigma, P4333). The BXPC-3, Miapaca-2, Capan-1, ASPC-1, Colo357/FG, L3.6PL, Panc28, Capan-2, CF-Pac-1, Panc3, Panc1, Panc48, and HPAC cell lines were cultured in DMEM/F-12 (Corning, 10-092-CV) supplemented with 10% FBS and 1% penicillin/streptomycin. Cells were grown in a humidified incubator with 5% CO2 at 37° C., and low-passage stocks were maintained in a centralized lab cell bank. Short tandem repeat profiling and mycoplasma tests were done by the Cytogenetics and Cell Authentication Core at MD Anderson Cancer Center. […]

HY24409 cells = assay: Cell cycle analysis after double thymidine block; type: cell-based, mouse; conditions: flow cytometry; mifepristone 20 μM, 48 h pretreatment; unsynchronized and after release from double thymidine block
Description: Cell cycle analysis Cells were seeded in 6-well plates (2×10^5 cells per well) and treated with 2 mM thymidine (Sigma-Aldrich, T9250-1G) for 18 hours, fresh medium for 9 hours, and 2 mM thymidine again for 17 hours to arrest cells in G1/S phases for synchronization. Released cells were collected at the indicated time points by centrifugation, washed in cold PBS, resuspended in 1 ml of 70% ethanol, and stored at −20° C. overnight. Cells were then collected by centrifugation and washed two times with cold PBS. To ensure that only DNA was stained, cells were treated with 50 μl of 100 μg ml^−1 RNase (New England Biolabs, T3018L), and added 425 μl of cell staining buffer (2% FBS in PBS) and 25 μl of propidium iodide solution (BioLegend, 421301). After staining, samples were analyzed by flow cytometry. Cells were gated for PI staining and the cells in G1, S, and G2/M phases were quantitated using FlowJo software.

[1] = test system: orthotopic HY19636 tumors; assay: Female C57BL/6 mice bearing orthotopic HY19636 tumors; type: in vivo, mouse
Description: Orthotopic pancreatic tumor size was determined by MRI. Subcutaneous tumor size was measured with a caliper. […] Animal body weight was measured throughout the study.

Chain of GR (P04150 whole entry, the tested form may be a part): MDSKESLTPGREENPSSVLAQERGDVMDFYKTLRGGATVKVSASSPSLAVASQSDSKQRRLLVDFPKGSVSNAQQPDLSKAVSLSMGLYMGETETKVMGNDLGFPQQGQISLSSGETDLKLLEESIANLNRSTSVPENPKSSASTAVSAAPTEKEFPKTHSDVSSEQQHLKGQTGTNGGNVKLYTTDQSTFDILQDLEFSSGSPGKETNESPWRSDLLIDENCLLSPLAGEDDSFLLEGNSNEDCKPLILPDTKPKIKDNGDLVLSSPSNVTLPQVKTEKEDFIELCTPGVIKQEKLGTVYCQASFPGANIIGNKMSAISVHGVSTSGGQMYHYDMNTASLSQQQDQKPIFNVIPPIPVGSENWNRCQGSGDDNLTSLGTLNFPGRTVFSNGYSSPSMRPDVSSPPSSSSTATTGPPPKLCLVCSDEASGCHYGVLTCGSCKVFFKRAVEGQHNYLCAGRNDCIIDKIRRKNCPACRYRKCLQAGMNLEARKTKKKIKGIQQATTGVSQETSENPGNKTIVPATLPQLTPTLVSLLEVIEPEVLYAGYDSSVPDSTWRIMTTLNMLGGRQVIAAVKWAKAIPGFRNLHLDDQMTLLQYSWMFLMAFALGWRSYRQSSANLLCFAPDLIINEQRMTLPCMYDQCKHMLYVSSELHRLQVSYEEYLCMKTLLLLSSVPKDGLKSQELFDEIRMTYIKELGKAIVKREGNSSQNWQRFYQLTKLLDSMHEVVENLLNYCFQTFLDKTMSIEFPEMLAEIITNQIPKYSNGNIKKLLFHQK

## CC#C[C@]1(O)CC[C@H]2[C@@H]3CCC4=CC(=O)CCC4=C3[C@@H](c3ccc(N(C)C)cc3)C[C@@]21C [mifepristone]
GR
  dexamethasone-induced binding of promoter sites to GR: reversed
HPAC cells
  MHC-I at both mRNA and protein levels: significantly upregulated
  PD-L1 at both mRNA and protein levels: downregulated
HY24409 cells
  cell cycle profile: neither GR knockdown (FIGS. 11Q-11R) nor mifepristone treatment (FIGS. 11S-11T) altered the cell cycle profile
[1]
  body weight: without reducing body weight
  tumor growth: markedly inhibited tumor growth
[1]; mifepristone with dual ICB
  sensitivity of tumors to dual ICB: rendered sensitivity to dual ICB
